Reference: patent publication US20120214811A1, “RAF INHIBITOR COMPOUNDS AND METHODS OF USE THEREOF” (priority 2009, published 2012)

Each molecule was assayed against T1, V600E full-length B-Raf (Homo sapiens, UniProt P15056, V600E) (assay: B-Raf IC50 assay (incorporation of radio labeled phosphate from [γ-33P]ATP into FSBA-modified wild-type MEK)). Conditions: Example A assay; 4 μM ATP, 20 nM V600E full-length B-Raf, 60-minute incubation at 22° C.; read-out: BRAF V600E IC50.
T1 construct: 1 μM FSBA-MEK and 20 nM V600E full-length B-Raf; made in house; host or cells: Sf9 insect cells (baculovirus)
T1 sequence (P15056 whole entry V600E): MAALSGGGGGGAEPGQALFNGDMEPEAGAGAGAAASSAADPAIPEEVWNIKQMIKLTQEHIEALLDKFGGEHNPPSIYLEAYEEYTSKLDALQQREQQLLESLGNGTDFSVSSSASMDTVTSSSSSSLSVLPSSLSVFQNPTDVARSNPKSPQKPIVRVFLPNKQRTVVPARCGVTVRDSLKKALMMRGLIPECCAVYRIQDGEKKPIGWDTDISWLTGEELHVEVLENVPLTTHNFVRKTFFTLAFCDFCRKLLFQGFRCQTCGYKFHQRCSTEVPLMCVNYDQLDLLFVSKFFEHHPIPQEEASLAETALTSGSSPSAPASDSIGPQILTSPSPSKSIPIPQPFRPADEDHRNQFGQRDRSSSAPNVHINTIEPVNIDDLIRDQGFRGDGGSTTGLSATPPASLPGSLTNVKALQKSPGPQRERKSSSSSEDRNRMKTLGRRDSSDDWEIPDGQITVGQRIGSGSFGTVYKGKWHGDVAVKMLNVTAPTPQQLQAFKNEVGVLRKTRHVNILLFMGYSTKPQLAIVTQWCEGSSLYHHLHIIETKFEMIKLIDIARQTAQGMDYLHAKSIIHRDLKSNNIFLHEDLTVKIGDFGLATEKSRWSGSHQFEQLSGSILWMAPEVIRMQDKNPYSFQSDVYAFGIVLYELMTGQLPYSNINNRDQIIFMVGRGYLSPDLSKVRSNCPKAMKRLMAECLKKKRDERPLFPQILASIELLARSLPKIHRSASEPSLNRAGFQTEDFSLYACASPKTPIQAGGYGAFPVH
Assay type: biochemical
Excerpt: Determining the activity of Raf in the sample is possible by a number of direct and indirect detection methods (US 2004/0082014). Activity of human recombinant B-Raf protein may be assessed in vitro by assay of the incorporation of radio labeled phosphate to recombinant MAP kinase (MEK), a known physiologic substrate of B-Raf, according to US 2004/0127496 and WO 03/022840. The activity/inhibition of V600E full-length B-Raf was estimated by measuring the incorporation of radio labeled phosphate from [γ-^33]ATP into FSBA-modified wild-type MEK (see Example A).
Activity of human recombinant B-Raf protein may be assessed in vitro by assay of the incorporation of radio labeled phosphate to recombinant MAP kinase (MEK), a known physiologic substrate of B-Raf, according to US 2004/0127496 and WO 03/022840. Catalytically active human recombinant B-Raf protein is obtained by purification from sf9 insect cells infected with a human B-Raf recombinant baculovirus expression vector.
The activity/inhibition of V600E full-length B-Raf was estimated by measuring the incorporation of radio labeled phosphate from [γ-^33P]ATP into FSBA-modified wild-type MEK. The 30-μL assay mixtures contained 25 mM Na Pipes, pH 7.2, 100 mM KCl, 10 mM MgCl2, 5 mM β-glycerophosphate, 100 μM Na Vanadate, 4 μM ATP, 500 nCi [γ-^33P]ATP, 1 μM FSBA-MEK and 20 nM V600E full-length B-Raf. Incubations were carried out at 22° C. in a Costar 3365 plate (Corning). Prior to the assay, the B-Raf and FSBA-MEK were preincubated together in assay buffer at 1.5× (20 μL of 30 nM and 1.5 μM, respectively) for 15 minutes, and the assay was initiated by the addition of 10 μL of 10 μM ATP. Following the 60-minute incubation, the assay mixtures were quenched by the addition of 100 μL of 25% TCA, the plate was mixed on a rotary shaker for 1 minute, and the product was captured on a Perkin-Elmer GF/B filter plate using a Tomtec Mach III Harvester. After sealing the bottom of the plate, 35 μL of Bio-Safe II (Research Products International) scintillation cocktail were added to each well and the plate was top-sealed and counted in a Topcount NXT (Packard).
`CCCS(=O)(=O)Nc1ccc(F)c(NC(=O)Nc2cc(NCC)ncn2)c1F` [Example 1, Propane-1-sulfonic acid {3-[3-(6-ethylamino-pyrimidin-4-yl)-ureido]-2,4-difluoro-phenyl}-amide] gave an IC50 of 28 nM. For `CCCS(=O)(=O)Nc1ccc(F)c(NC(=O)Nc2cc(N)ncn2)c1F` [Example 2, N-(3-(3-(6-aminopyrimidin-4-yl)ureido)-2,4-difluorophenyl)propane-1-sulfonamide], the IC50 was 142 nM. In the case of `CCCS(=O)(=O)Nc1ccc(F)c(NC(=O)Nc2cc(NC)ncn2)c1F` [Example 3, N-(2,4-difluoro-3-(3-(6-(methylamino)pyrimidin-4-yl)ureido)phenyl)propane-1-sulfonamide], the IC50 is reported as 31.2 nM. `CCCS(=O)(=O)Nc1ccc(F)c(NC(=O)Nc2cc(NC(C)C)ncn2)c1F` [Example 4, N-(2,4-difluoro-3-(3-(6-(isopropylamino)pyrimidin-4-yl)ureido)phenyl)propane-1-sulfonamide] showed an IC50 of 165 nM. `CCCS(=O)(=O)Nc1ccc(F)c(NC(=O)Nc2cc(NCCO)ncn2)c1F` [Example 5, N-(2,4-difluoro-3-(3-(6-(2-hydroxyethylamino)pyrimidin-4-yl)ureido)phenyl)propane-1-sulfonamide] gave an IC50 of 63.5 nM. `CCCS(=O)(=O)Nc1ccc(F)c(NC(=O)Nc2cc(NCCN3CCOCC3)ncn2)c1F` [Example 6, N-(2,4-difluoro-3-(3-(6-(2-morpholinoethylamino)pyrimidin-4-yl)ureido)phenyl)propane-1-sulfonamide] was tested, and the IC50 was 535 nM. Molecule `CCCS(=O)(=O)Nc1ccc(F)c(NC(=O)Nc2ccncn2)c1F` [Example 7, Propane-1-sulfonic acid [2,4-difluoro-3-(3-pyrimidin-4-yl-ureido)-phenyl]-amide] has an IC50 of 1390 nM. `CCCS(=O)(=O)Nc1ccc(F)c(NC(=O)Nc2cc(NC)ncn2)c1Cl` [Example 8, Propane-1-sulfonic acid {2-chloro-4-fluoro-3-[3-(6-methylamino-pyrimidin-4-yl)-ureido]-phenyl}-amide] gave an IC50 of 19.8 nM. Work on `CCCS(=O)(=O)Nc1ccc(Cl)c(NC(=O)Nc2cc(NC)ncn2)c1F` [Example 9, N-4-Chloro-2-fluoro-3-(3-((6-(methylamino)pyrimidin-4-yl)ureido)phenyl)propane-1-sulfonamide] yielded an IC50 of 8.9 nM. `CCCS(=O)(=O)Nc1ccc(Cl)c(NC(=O)Nc2cc(NCc3ccccc3)ncn2)c1F` [Example 10, N-(3-(3-(6-(Benzylamino)pyrimidin-4-yl)ureido)-4-chloro-2-fluorophenyl)propane-1-sulfonamide] showed an IC50 of 19.2 nM. `CCCS(=O)(=O)Nc1ccc(F)c(NC(=O)N(C)c2ccncn2)c1F` [Example 11, Propane-1-sulfonic acid [2,4-difluoro-3-(3-methyl-3-pyrimidin-4-yl-ureido)-phenyl]-amide] gave an IC50 of 1230 nM. `CCCS(=O)(=O)Nc1ccc(F)c(NC(=O)N(C)c2cc(Nc3ccn(C)n3)ncn2)c1F` [Example 12, Propane-1-sulfonic acid (2,4-difluoro-3-{3-methyl-3-[6-(1-methyl-1H-pyrazol-3-ylamino)-pyrimidin-4-yl]-ureido}-phenyl)-amide] showed an IC50 of 59.1 nM. `CCCS(=O)(=O)Nc1ccc(F)c(NC(=O)N(C)c2cc(NC3CC3)ncn2)c1F` [Example 13, N-(3-(3-(6-(cyclopropylamino)pyrimidin-4-yl)-3-methylureido)-2,4-difluorophenyl)propane-1-sulfonamide] was tested, and the IC50 was 21.8 nM. For `CCCS(=O)(=O)Nc1ccc(F)c(NC(=O)N(C)c2cc(NCC)ncn2)c1F` [Example 14, N-(3-(3-(6-(ethylamino)pyrimidin-4-yl)-3-methylureido)-2,4-difluorophenyl)propane-1-sulfonamide], the IC50 was 25.6 nM. `CCCS(=O)(=O)Nc1ccc(F)c(NC(=O)N(C)c2cc(N)ncn2)c1F` [Example 15, N-(3-(3-(6-aminopyrimidin-4-yl)-3-methylureido)-2,4-difluorophenyl)propane-1-sulfonamide] gave an IC50 of 83.3 nM. Molecule `CCCS(=O)(=O)Nc1ccc(F)c(NC(=O)N(C)c2cc(NCCO)ncn2)c1F` [Example 16, N-(2,4-difluoro-3-(3-(6-(2-hydroxyethylamino)pyrimidin-4-yl)-3-methylureido)phenyl) propane-1-sulfonamide] has an IC50 of 121 nM. Work on `CCCS(=O)(=O)Nc1ccc(F)c(NC(=O)N(C)c2cc(NC)ncn2)c1F` [Example 17, N-(2,4-difluoro-3-(3-methyl-3-(6-(methylamino)pyrimidin-4-yl)ureido)phenyl)propane-1-sulfonamide] yielded an IC50 of 84.6 nM. `CCCS(=O)(=O)Nc1ccc(F)c(NC(=O)N(C)c2cc(NC3CCC3)ncn2)c1F` [Example 18, N-(3-(3-(6-(cyclobutylamino)pyrimidin-4-yl)-3-methylureido)-2,4-difluorophenyl)propane-1-sulfonamide] was tested, and the IC50 was 83.6 nM. `CCCS(=O)(=O)Nc1ccc(F)c(NC(=O)N(C)c2cc(NC3CCOC3)ncn2)c1F` (stereo not shown) [Example 19, N-(2,4-difluoro-3-(3-methyl-3-(6-(tetrahydrofuran-3-ylamino)pyrimidin-4-yl)ureido)phenyl)propane-1-sulfonamide] was tested, and the IC50 was 283 nM. Molecule `CCCS(=O)(=O)Nc1ccc(F)c(NC(=O)N(C)c2cc(NN)ncn2)c1F` [Example 20, N-(2,4-difluoro-3-(3-(6-hydrazinylpyrimidin-4-yl)-3-methylureido)phenyl) propane-1-sulfonamide] has an IC50 of 33.4 nM. Work on `CCCS(=O)(=O)Nc1ccc(F)c(NC(=O)N(C)c2cc(NC(C)C)ncn2)c1F` [Example 21, N-(2,4-difluoro-3-(3-(6-(isopropylamino)pyrimidin-4-yl)-3-methylureido)phenyl) propane-1-sulfonamide] yielded an IC50 of 132 nM. `CCCS(=O)(=O)Nc1ccc(F)c(NC(=O)N(C)c2cc(NCCN3CCOCC3)ncn2)c1F` [Example 22, N-(2,4-difluoro-3-(3-methyl-3-(6-(2 morpholinoethylamino)pyrimidin-4-yl)ureido)phenyl)propane-1-sulfonamide] was tested, and the IC50 was 616 nM. Molecule `CCCS(=O)(=O)Nc1ccc(F)c(NC(=O)Nc2ncnc(Nc3ccc(F)cc3)n2)c1F` [Example 23, N-(2,4-Difluoro-3-(3-(4-(4-fluorophenylamino)-1,3,5-triazin-2-yl)ureido)phenyl)propane-1-sulfonamide] has an IC50 of 13.4 nM. With `CCCS(=O)(=O)Nc1ccc(F)c(NC(=O)Nc2ncncn2)c1F` [Example 24, N-(3-(3-1,3,5-Triazin-2-ylureido)-2,4-difluorophenyl)propane-1-sulfonamide] the IC50 was 122 nM. `CCCS(=O)(=O)Nc1ccc(F)c(NC(=O)Nc2ncncc2-c2ccc(Cl)cc2)c1F` [Example 25] gave an IC50 of 288 nM. `CCCS(=O)(=O)Nc1ccc(F)c(NC(=O)Nc2ncnc(NC)n2)c1F` [Example 26, N-(2,4-Difluoro-3-(3-(4-(methylamino)-1,3,5-triazin-2-yl)ureido)phenyl)propane-1-sulfonamide] showed an IC50 of 235 nM.

Each molecule was assayed on basal ERK1/2 phosphorylation (assay: Cellular ERK 1/2 phosphorylation assay in Malme-3M cells). Conditions: Homo sapiens, 1 hour incubation, pERK signal normalized to total ERK, read-out: IC50, inhibition of basal ERK1/2 phosphorylation.
Assay type: cell-based
Protocol: Inhibition of basal ERK1/2 phosphorylation was determined by the following in vitro […], which comprises incubating cells with a compound of Formula II for 1 hour and quantifying the fluorescent pERK signal on fixed cells and normalizing to total ERK signal.
Materials and Methods: Malme-3M cells were obtained from ATCC and grown in RPMI-1640 supplemented with 10% fetal bovine serum. Cells were plated in 96-well plates at 24,000 cells/well and allowed to attach for 16-20 hours at 37° C., 5% CO2. The media was removed, and DMSO-diluted compounds were added in RPMI-1640 at a final concentration of 1% DMSO. The cells were incubated with the compounds for 1 hour at 37° C., 5% CO2. The cells were washed with PBS and fixed in 3.7% formaldehyde in PBS for 15 minutes. This was followed by washing in PBS/0.05% Tween20 and permeabilizing in −20° C. 100% MeOH for 15 minutes. Cells were washed in PBS/0.05% Tween20 then blocked in Odyssey blocking buffer (LI-COR Biosciences) for 1 hour. Antibodies to phosphorylated ERK (1:400, Cell Signaling #9106, monoclonal) and total ERK (1:400, Santa Cruz Biotechnology #sc-94, polyclonal) were added to the cells and incubated 16-20 hours at 4° C. […] Cells were then washed and analyzed for fluorescence at both wavelengths using the Odyssey Infrared Imaging System (LI-COR Biosciences). […]
With `CCCS(=O)(=O)Nc1ccc(F)c(NC(=O)Nc2cc(N)ncn2)c1F` [Example 2, N-(3-(3-(6-aminopyrimidin-4-yl)ureido)-2,4-difluorophenyl)propane-1-sulfonamide] the IC50 was ~438 nM. Molecule `CCCS(=O)(=O)Nc1ccc(F)c(NC(=O)Nc2cc(NC)ncn2)c1Cl` [Example 8, Propane-1-sulfonic acid {2-chloro-4-fluoro-3-[3-(6-methylamino-pyrimidin-4-yl)-ureido]-phenyl}-amide] has an IC50 of ~153 nM.
